Reference: patent US20230257385A1, “SALT AND SOLID FORMS OF TABERNANTHALOG” (priority 2021, published 2023)

How the values were obtained:
Format in all cases: physicochemical
[1] = Binary solvent evaporation crystallisation of sorbate salt (Example 10, Experiment 6); conditions: sorbate salt Form A evaporated from MeOH (10 vol) plus solvent B (5 vol), one solvent B per sample
Description: Each vial was capped with aluminium foil, pierced, and allowed to stand undisturbed until the evaporation is completed.

[2] = Suspension equilibration (competitive; ageing cycle; drying of wet pellets), relative stability of forms
Experimental: FIG. 94 depicts the XRPD overlay of, form top to bottom, a mixture of Tabernanthalog·0.5 Fumarate and Tabernanthalog·Fumarate equilibrated in acetonitrile at 20° C., a mixture of Tabernanthalog·0.5 Fumarate and Tabernanthalog·Fumarate equilibrated in acetonitrile at 40° C. and Tabernanthalog fumarate Pattern 19.
FIG. 283 depicts the timepoints of the suspension equilibration in tBME at 20° C. XRPD diffractogram overlay of, from top to bottom, Sample B-A2 (Form B, Pattern #2a), 8-A4 (Form A, Pattern #6a), 16-A1 (t=24 h, 16-A2 (t=48 h), 16-A3 (t=108 h), 16-A4 (t=192 h) 16-A8 (t=4 weeks).
FIG. 284 depicts the timepoints of the suspension equilibration in tBME at 40° C. XRPD diffractogram overlay of, from top to bottom, Sample B-A2 (Form B, Pattern #2a), 8-A4 (Form A, Pattern #6a), 16-B1 (t=24 h, 16-B2 (t=48 h), 16-B3 (t=108 h), 16-B4 (t=192 h) 16-B8 (t=4 weeks).

[3] = Competitive suspension equilibration monofumarate Form A and Form B (Experiment Reference 16); conditions: 16-A at 20 °C, 16-B at 40 °C
Experimental: Competitive suspension equilibration (Form A and Form B) (Experiment Reference 16) a. Experimental Procedure Equimolar quantities of Form A (Pattern #6a, 25.4 mg, 1 wt, 8-A4; (Experiment Reference 8-Sample Reference A4)) and Form B (Pattern #2a, 25.0 mg, 1 wt, Sample B-A2) were suspended in tBME (250 μl, 5.0 vol). The first experiment was agitated at 20° C., (16-A) (Experiment Reference 16-Sample Reference A), while the other was agitated at 40° C. (16-B) (Experiment Reference 16-Sample Reference B). The suspension was monitored by XRPD analysis.
Competitive suspension equilibration of Form A (8-A4) (Experiment Reference 8-Sample Reference A4) versus Form B (Sample B-A2) was performed at 20° C. […] Summary of competitive suspension equilibration between Form A and Form B (16-A (Experiment Reference 16-Sample Reference A) and 16-B (Experiment Reference 16-Sample Reference B)) is provided in Table 153A.

[4] = Evaporation screen of the monofumarate salt (Experiment Reference 14); conditions: input Sample Reference 1, Solvent A DMSO, Solvent B: 14-A EtOH; for XRPD crystallinity (wet pellet): 14-B nBuOH (disordered), 14-C water (high background); for XRPD crystallinity (oven dried): 14-B nBuOH, 14-C water
Experimental: Crystallization of the API was examined by changing the composition of the crystallization solvent by evaporation of a volatile diluent. This technique is useful for generating kinetic forms and solvates. Separate portions of the tabernanthalog monofumarate salt (Pattern #1, Sample Reference 1, ca 50 mg, 1.0 wt.) were charged to separate vessels. DMSO (100 μl, 2.0 vol, refer to Table 132) was charged to the relevant vessels and subsequent charges of the appropriate co-solvent (900 μl, 18.0 vol) were made to accomplish dissolution. The vials were covered with an aluminum foil cap and pierced with a single hole, then left to stand at 20° C. After 6 days, gentle nitrogen flux was applied to dryness. The products were analyzed by XRPD and companion analyses, for evidence of alternative crystalline forms.

[5] = Vapour diffusion of the monofumarate salt (Experiment Reference 13); conditions: input Sample Reference 1, Solvent A DMSO, Solvent B: 13-B TBME, 13-C water, patterns v. disordered
Experimental: The tabernanthalog monofumarate salt (Sample Reference 1, Pattern #1, 3×75 mg, 1 wt) was weighed out in to 3 separate snap-top vials and DMSO (375 ul, 5 vol) was charged to each vial. Gentle warning was applied to ensure full dissolution and the vials (open) were placed inside amber jars that contained 6 ml of DCM (13-A) (Experiment Reference 13-Sample Reference A), tBME (13-B) (Experiment Reference 13-Sample Reference B) and water (13-C) (Experiment Reference 13-Sample Reference C).
The 3 jars that contained the vials were left standing at 20° C., to allow slow movement of the diffusant solvent from the outer jar into the solvent inside the smaller, open wide-necked vessel and promote crystallization by altering the solvent composition.

[6] = Re-proportionation examination hemifumarate / monofumarate (Example 5, Experiment References 5 and 10)
Experimental: (5-B4; Experiment Reference 5-Sample Reference B4) and 40° C. (5-B5; Experiment Reference 5-Sample Reference B5). The output was analyzed by XRPD (FIG. 94).
Purified water (250 ml, 5 vol) was subsequently added, and the suspension was stirred at 50° C. for ca. 24 h.
Purified water (250 ml, 5 vol) was subsequently added, and the suspension was stirred at 20° C. for ca. 24 h.

[7] = Stability panel of salts, open vial / double-bagged vial, t=5 d and 10 d; conditions: input Form A
Description: FIG. 797 depicts the overlay of, from top to bottom, XRPD of Experiment 1-Sample A2 (Form A), Experiment 10-Sample A1 (5 days, open vial Pattern #2), Experiment 10-Sample A2 (10 days, open vial, Pattern #2), Experiment 10-Sample B1 (5 days, double-bagged vial, Form A) and Experiment 10-Sample B2 (10 days, double-bagged vial, Pattern #2).

[8] = Stability of Tabernanthalog·Sorbate·HemiHFIPA at 75% RH, 20° C. and 40° C.; conditions: 5 days; for HFIPA content after storage / powder pattern after storage: 75% RH, 20° C. and 40° C.; for HFIPA content after storage: 19F NMR; for powder pattern after storage: XRPD; for Outcome: input Experiment 3-Sample A2
Experimental: Stability of the salt (Table 302) at elevated relative humidity was examined at 20 and 40° C., to determine if the HFIPA solvent can be replaced by water to generate the isomorphic hydrate.
Experimental reference: Experiment 3-Sample B1, Experiment 3-Sample C1 Tabernanthalog·Sorbate·HemiHFIPA (Experiment 3-Sample A2, 28.2 mg, 1 wt) was charged into a wide necked solid sample vial, the uncapped vial was placed inside a larger amber jar containing an aqueous NaCl slurry. The amber jar was sealed and left to stand for 5 days. The specimen analysed by XRPD, ^19F NMR, TGA and DSC after 5 days.

[9] = listed as Tabernanthalog·Sorbate·hemiHFIPA

CC=CC=CC(=O)O.COc1ccc2c3c([nH]c2c1)CCN(C)CC3 [Experiment 6-Sample A]
XRPD (dried under nitrogen) [1]: Pattern #1

COc1ccc2c3c([nH]c2c1)CCN(C)CC3 [Form B]
form change under competitive suspension equilibration conditions ([2]; in the presence of Form A): slowly evolves into Form A

CC=CC=CC(=O)O.COc1ccc2c3c([nH]c2c1)CCN(C)CC3 [Experiment 6-Sample C]
XRPD (dried under nitrogen) [1]: Form A

COc1ccc2c3c([nH]c2c1)CCN(C)CC3.O=C(O)/C=C/C(=O)O [Pattern 16-A]
XRPD (4 weeks, -A8) ([3]; competitive suspension equilibration of Form A and Form B in TBME (5.0 vol), t = 4 weeks): Form A > Form B | XRPD (48 h, -A2) ([3]; competitive suspension equilibration of Form A and Form B in TBME (5.0 vol), t = 48 h): Form A > Form B | XRPD (108 h, -A3) ([3]; competitive suspension equilibration of Form A and Form B in TBME (5.0 vol), t = 108 h): Form A > Form B | XRPD (192 h, -A4) ([3]; competitive suspension equilibration of Form A and Form B in TBME (5.0 vol), t = 192 h): Form A >> Form B

COc1ccc2c3c([nH]c2c1)CCN(C)CC3.O=C(O)/C=C/C(=O)O [Pattern 14-B]
XRPD crystallinity (wet pellet) [4]: (Pattern #23)

C/C=C/C=C/C(=O)O.COc1ccc2c3c([nH]c2c1)CCN(C)CC3 [Experiment 6-Sample E]
XRPD (dried under nitrogen) [1]: Form A

COc1ccc2c3c([nH]c2c1)CCN(C)CC3.O=C(O)/C=C/C(=O)O [Sample 13-B]
XRPD crystallinity (oven dried) [5]: Pattern #24 | XRPD crystallinity (wet pellet) [5]: Pattern #24

COc1ccc2c3c([nH]c2c1)CCN(C)CC3.O=C(O)/C=C/C(=O)O [Pattern 16-B]
XRPD (24 h, -A1) ([3]; competitive suspension equilibration of Form A (8-A4) and Form B (Sample B-A2) in TBME (5.0 vol), t = 24 h): Form A > Form B

COc1ccc2c3c([nH]c2c1)CCN(C)CC3.O=C(O)/C=C/C(=O)O [Sample 13-C]
XRPD crystallinity (oven dried) [5]: Pattern #23 | XRPD crystallinity (wet pellet) [5]: Pattern #23

COc1ccc2c3c([nH]c2c1)CCN(C)CC3 [tabernanthalog hemifumarate]
change of salt stoichiometry during an ageing cycle ([2]; ageing cycle): re-proportionated into the fumarate salt | re-proportionation of the hemi-salt into the monofumarate salt ([6]; Expt. #1: equilibrated in acetonitrile at 20° C., 20 h time point): did not re-proportionate | outcome of competitive equilibration of hemifumarate and monofumarate ([6]; Expt. #2: acetonitrile, 48 h at 20° C. and 18 h at 40° C., XRPD): re-proportionation into the unary-fumarate appeared to be favored over the hemi-fumarate

COc1ccc2c3c([nH]c2c1)CCN(C)CC3.O=C(O)/C=C/C(=O)O [Pattern 14-A]
XRPD crystallinity (wet pellet) [4]: (Pattern #23)

COc1ccc2c3c([nH]c2c1)CCN(C)CC3.O=C(O)/C=C/C(=O)O [Sample 14-B]
XRPD crystallinity (oven dried) [4]: Pattern 23

COc1ccc2c3c([nH]c2c1)CCN(C)CC3.O=C(O)/C=C/C(=O)O [Pattern 14-C]
XRPD crystallinity (wet pellet) [4]: (Pattern #6a)

C/C=C/C=C/C(=O)O.COc1ccc2c3c([nH]c2c1)CCN(C)CC3 [tabernanthalog sorbate salt Form A]
form by XRPD after stability storage ([7]; 5 days, double-bagged vial): Form A | form by XRPD after stability storage ([7]; 5 days, open vial): Pattern #2 | form by XRPD after stability storage ([7]; 10 days, double-bagged vial): Pattern #2

COc1ccc2c3c([nH]c2c1)CCN(C)CC3.O=C(O)/C=C/C(=O)O [Sample 14-C]
XRPD crystallinity (oven dried) [4]: Pattern 6a

C/C=C/C=C/C(=O)O.C/C=C/C=C/C(=O)O.COc1ccc2c3c([nH]c2c1)CCN(C)CC3.COc1ccc2c3c([nH]c2c1)CCN(C)CC3.OC(C(F)(F)F)C(F)(F)F [Tabernanthalog·Sorbate·HemiHFIPA]
HFIPA content after storage [8]: small decrease in HFIPA content | HFIPA content after storage [8, 9]: partial loss of HFIPA | powder pattern after storage [8]: No change in powder pattern observed | powder pattern after storage [8, 9]: No change in the powder pattern was observed

COc1ccc2c3c([nH]c2c1)CCN(C)CC3.O=C(O)/C=C/C(=O)O [Sample 14-A]
XRPD crystallinity (oven dried) [4]: Pattern 23

C/C=C/C=C/C(=O)O.COc1ccc2c3c([nH]c2c1)CCN(C)CC3 [Experiment 6-Sample D]
XRPD (dried under nitrogen) [1]: Form A

CC=CC=CC(=O)O.CC=CC=CC(=O)O.COc1ccc2c3c([nH]c2c1)CCN(C)CC3.COc1ccc2c3c([nH]c2c1)CCN(C)CC3.OC(C(F)(F)F)C(F)(F)F [Tabernanthalog•Sorbate•hemiHFIPA]
Outcome ([8]; 75% RH 20° C.): HemiHFIPA | Outcome ([8]; 75% RH 40° C.): HemiHFIPA
